The text below walks through data of US6960685B2 (TopoTarget UK Limited, priority 2000, dated 2005).

In one experiment the test system is HDAC (HeLa cell extract). Put plainly: Primary assay: deacetylase activity, HeLa cell extract as source of HDAC. It is filed as biochemical, human. The source says: Briefly, this assay relies on the release of radioactive acetate from a radioactively labelled histone fragment by the action of HDAC enzyme. Test compounds, which inhibit HDAC, reduce the yield of radioactive acetate. Signal (e.g., scintillation counts) measured in the presence and absence of a test compound provide an indication of that compound's ability to inhibit HDAC activity. Decreased activity indicates increased inhibition by the test compound.
The histone fragment was an N-terminal sequence from histone H4, and it was labelled with radioactively labelled acetyl groups using tritiated acetylcoenzyme A (coA) in conjunction with an enzyme which is the histone acetyltransferase domain of the transcriptional coactivator p300. 0.33 mg of peptide H4 (the N-terminal 20 amino acids of histone H4, synthesized using conventional methods) were incubated with His6-tagged p300 histone acetyltransferase domain (amino acids 1195-1673, expressed in E coli strain BLR(DE3)pLysS (Novagen, Cat. No. 69451-3) and 3H-acetyl coA (10 μL of 3.95 Ci/mmol; from Amersham) in a total volume of 300 μL of HAT buffer (50 mM TrisCl pH 8, 5% glycerol, 50 mM KCl, 0.1 mM ethylenediaminetetraacetic acid (EDTA), 1 mM dithiothreitol (DTT) and 1 mM 4-(2-aminoethyl)-benzenesulfonylfluoride (AEBSF)). The mixture was incubated at 30° C. for 45 min after which the His-p300 was removed using nickel-trinitriloacetic acid agarose (Qiagen, Cat No. 30210). The acetylated peptide was then separated from free acetyl coA by size exclusion chromatography on Sephadex G-15 (Sigma G-15-120), using distilled H2O as the mobile phase.
After purification of the radiolabelled histone fragment, it was incubated with a source of HDAC (e.g., an extract of HeLa cells (a rich source of HDAC), recombinantly produced HDAC1 or HDAC2) and any released acetate was extracted into an organic phase and quantitatively determined using scintillation counting. By including a test compound with the source of HDAC, that compound's ability to inhibit the HDAC was determined.
Two cell volumes of extraction buffer were used, and particulate material was centrifuged out (20800 g, 4° C., 10 min). The supernatant extract having deacetylase activity was aliquotted and frozen for storage.
A source of HDAC (e.g., 2 μL of crude HeLa extract, 5 μL of HDAC1 or HDAC2; in elution buffer, as above) was incubated with 3 μL of radioactively labelled peptide along with appropriate dilutions of candidate compounds (1.5 μL) in a total volume of 150 μL of buffer (20 mM Tris pH 7.4, 10% glycerol). The reaction was carried out at 37° C. for one hour, after which the reaction was stopped by adding 20 μL of 1 M HCl/0.4 M sodium acetate. Then, 750 μL of ethyl acetate was added, the samples vortexed and, after centrifugation (14000 rpm, 5 min), 600 μL from the upper phase were transferred to a vial containing 3 mL of scintillation liquid (UltimaGold, Packard, Cat. No. 6013329). Radioactivity was measured using a Tri-Carb 2100TR Liquid Scintillation Analyzer (Packard).
Percent activity (% activity) for each test compound was calculated as: % activity={(S^C−B)/(S^o−B)}×100 wherein S^c denotes signal measured in the presence of enzyme and the compound being tested, S^o denotes signal measured in the presence of enzyme but in the absence of the compound being tested, and B denotes the background signal measured in the absence of both enzyme and compound being tested.

In a further experiment the test system is HeLa cells. Put plainly: Secondary assay: cell proliferation WST-1, HeLa. It is filed as cell-based. The note with it: Homo sapiens, 48 h, read-out: Cell Proliferation Inhibition WST-1 IC50, HeLa. How it is done:
(§1) Compounds with HDAC inhibition activity, as determined using the primary assay, were subsequently evaluated using secondary cell-based assays. The following cell lines were used:
(§2) Cells were plated in 96-well plates at 3-10×10^3 cells/well in 100 μL of culture medium. The following day, different concentrations of candidate compounds were added and the cells incubated at 37° C. for 48 h. Subsequently, 10 μL/well of WST-1 reagent was added and the cells reincubated for 1 hour. After the incubation time, absorbance was measured.
(§3) WST-1 is a tetrazolium salt which is cleaved to formazan dye by cellular enzymes. […] The formazan dye produced is quantified by a scanning multiwell spectrophotometer by measuring the absorbance of the dye solution at 450 nm wavelength (reference wavelength 690 nm).
(§4) Percent activity (% activity) in reducing the number of viable cells was calculated for each test compound as: % activity={(S^C−B)/(S^o−B)}×100 wherein S^C denotes signal measured in the presence of the compound being tested, S^o denotes signal measured in the absence of the compound being tested, and B denotes the background signal measured in blank wells containing medium only. […] IC50 values were calculated using the software package Prism 3.0 (GraphPad Software Inc., San Diego, Calif.), setting top value at 100 and bottom value at 0.

For experiment [1], the system named is K11 HPV E7 transformed human keratinocyte line. Put plainly: Secondary assay: cell proliferation WST-1, K11. It is filed as cell-based. The note with it: K11, 48 h, read-out: Cell Proliferation Inhibition WST-1 IC50, K11. How it is done:
as §1
K11—HPV E7 transformed human keratinocyte line provided by Pidder Jansen-Duerr, Institut für Biomedizinische Alternsforschung, Innsbruck, Austria.
as §2
WST-1 is a tetrazolium salt which is cleaved to formazan dye by cellular enzymes. An expansion in the number of viable cells results in an increase in the overall activity of mitochondrial dehydrogenases in the sample. […] The formazan dye produced is quantified by a scanning multiwell spectrophotometer by measuring the absorbance of the dye solution at 450 nm wavelength (reference wavelength 690 nm).
IC50 values were calculated using the software package Prism 3.0 (GraphPad Software Inc., San Diego, Calif.), setting top value at 100 and bottom value at 0.

In another experiment the test system is JURKAT human T-cell line. Put plainly: Secondary assay: cell proliferation WST-1, Jurkat. It is filed as cell-based. The note with it: 48 h, read-out: Cell Proliferation Inhibition WST-1 IC50, Jurkat. How it is done:
as §1
JURKAT—Human T-cell line (ATCC no. TIB-152).
as §2, §3, §4

In the case of `CC(C)c1ccc(NC(=O)COCC(=O)NO)cc1` [Compound 1], the “HDAC Inhibition, HeLa (percent activity)” value in the experiment with HDAC (HeLa cell extract) (@ 1.0 μM) worked out at 16% @ 1.0 μM.
For `CN(C)c1ccc(NC(=O)CSCC(=O)NO)cc1` [Compound 2], the “HDAC Inhibition, HeLa (percent activity)” value in the experiment on HDAC (HeLa cell extract) (@ 500 nM) was determined as 26% @ 500 nM.
Turning to `CN(C)c1ccc(NC(=O)COCC(=O)NO)cc1` [Compound 4], the “HDAC Inhibition, HeLa (percent activity)” value with HDAC (HeLa cell extract) (@ 1.0 μM) was found to be 0% @ 1 μM.
Consider `O=C(/C=C/C=C/c1ccccc1)NCCSCCC(=O)NO` [Compound 5, (2E)(4E)-5-Phenylpenta-2,4-dienoic acid [2-(2-hydroxycarbamoylethylsulfanyl)ethyl]amide], for which, in the experiment on HDAC (HeLa cell extract) (@ 500 nM), the “HDAC Inhibition, HeLa (percent activity)” value is on record as 74% @ 500 nM. Besides, in the experiment with HeLa cells, the IC50 turned out to be 87 µM.
As for `O=C(CCSCCNC(=O)c1ccc2ccccc2c1)NO` [Compound 6, E-Naphthalene-2-carboxylic acid [2-(2-hydroxycarbamoylethylsulfanyl)ethyl]amide], the “HDAC Inhibition, HeLa (percent activity)” value in the experiment on HDAC (HeLa cell extract) (@ 500 nM) is reported as 43% @ 500 nM.
Take `O=C(/C=C/C=C/c1ccccc1)NCCCOc1ccc(CC(=O)NO)cc1` [Compound 7, (2E,4E)-N-(3-{4-[2-(Hydroxyamino)-2-oxoethyl]phenoxy}propyl)-5-phenyl-2,4-pentadienamide]: in the experiment on HDAC (HeLa cell extract) (@ 500 nM), the “HDAC Inhibition, HeLa (percent activity)” value is reported as 7% @ 500 nM.
Consider `O=C(/C=C/c1ccccc1)Nc1cccc(OCC(=O)NO)c1` [Compound 8, (E)-N-{3-[2-(Hydroxyamino)-2-oxoethoxy]phenyl}-3-phenyl-2-propenamide], for which the IC50 worked out at 750 nM in the experiment with HDAC (HeLa cell extract) (unit inferred, read-out: HDAC Inhibition IC50, HeLa); 25 µM in the experiment on HeLa cells; 1050 nM in experiment [1]; 12.7 µM with JURKAT human T-cell line.
Regarding `O=C(/C=C/C#Cc1cccc(NS(=O)(=O)c2ccccc2)c1)NO` [Oxamflatin, (2E)-5-[3-[(phenylsulfonyl)amino]phenyl]-pent-2-en-4-ynohydroxamic acid, reference compound], the IC50 in experiment [1] stood at 4820 nM; with JURKAT human T-cell line, 0.17 µM.
